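Here, GI50 denotes the concentration required for 50% inhibition of growth. TGI: total growth inhibition.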
Legend:
Test in all cases: NCI anticancer screen, dose series, 384-well format
786-0 renal = test system: 786-0 renal
K-562 leukemia = test system: K-562 leukemia
UACC-62 melanoma = test system: UACC-62 melanoma
OVCAR-8 ovarian = test system: OVCAR-8 ovarian
SNB-75 CNS = test system: SNB-75 CNS
HOP-92 NSCLC = test system: HOP-92 NSCLC
CCRF-CEM leukemia = test system: CCRF-CEM leukemia
KM12 colon = test system: KM12 colon
M14 melanoma = test system: M14 melanoma
TK-10 renal = test system: TK-10 renal
A549 NSCLC = test system: A549 NSCLC
HOP-62 NSCLC = test system: HOP-62 NSCLC
MOLT-4 leukemia = test system: MOLT-4 leukemia
SK-MEL-28 melanoma = test system: SK-MEL-28 melanoma
RXF 393 renal = test system: RXF 393 renal
SR leukemia = test system: SR leukemia
A498 renal = test system: A498 renal
SNB-19 CNS = test system: SNB-19 CNS
MDA-MB-231 breast = test system: MDA-MB-231 breast
OVCAR-4 ovarian = test system: OVCAR-4 ovarian
SW-620 colon = test system: SW-620 colon
COLO 205 colon = test system: COLO 205 colon
NCI/ADR-RES ovarian = test system: NCI/ADR-RES ovarian
PC-3 prostate = test system: PC-3 prostate
U251 glioblastoma = test system: U251 glioblastoma
HCC-2998 colon = test system: HCC-2998 colon
NCI-H460 NSCLC = test system: NCI-H460 NSCLC
SF-295 CNS = test system: SF-295 CNS
OVCAR-3 ovarian = test system: OVCAR-3 ovarian
HS 578T breast = test system: HS 578T breast
BT-549 breast = test system: BT-549 breast
SK-MEL-5 melanoma = test system: SK-MEL-5 melanoma
LOX IMVI melanoma = test system: LOX IMVI melanoma
SF-268 CNS = test system: SF-268 CNS
UACC-257 melanoma = test system: UACC-257 melanoma
IGROV1 ovarian = test system: IGROV1 ovarian
NCI-H23 lung = test system: NCI-H23 lung
NCI-H522 lung = test system: NCI-H522 lung
SK-OV-3 ovarian = test system: SK-OV-3 ovarian
SF-539 CNS = test system: SF-539 CNS
HCT-116 colon = test system: HCT-116 colon
HL-60(TB) leukemia = test system: HL-60(TB) leukemia
MDA-MB-435 melanoma = test system: MDA-MB-435 melanoma
ACHN renal = test system: ACHN renal
RPMI-8226 leukemia = test system: RPMI-8226 leukemia
EKVX NSCLC = test system: EKVX NSCLC
MDA-MB-468 breast = test system: MDA-MB-468 breast
UO-31 renal = test system: UO-31 renal
T-47D breast = test system: T-47D breast
MALME-3M melanoma = test system: MALME-3M melanoma
NCI-H226 lung = test system: NCI-H226 lung
HT29 colon = test system: HT29 colon
NCI-H322M lung = test system: NCI-H322M lung
HCT-15 colon = test system: HCT-15 colon
DU-145 prostate = test system: DU-145 prostate
CAKI-1 renal = test system: CAKI-1 renal
SN12C renal = test system: SN12C renal

Work on CCC(Sc1nnc2c3ccccc3n(CC)c2n1)C(=O)Nc1ccccc1OC (centres undefined) yielded a GI50 ([…]-0 renal) of over 100 µM, a TGI (786-0 renal) of over 100 µM and a GI50 (K-562 leukemia) of 7.45 µM. For the same compound, the TGI (K-562 leukemia) was over 100 µM, the GI50 (UACC-62 melanoma) was over 100 µM and the TGI (UACC-62 melanoma) was over 100 µM. The GI50 (OVCAR-8 ovarian) was over 100 µM, the TGI (OVCAR-8 ovarian) was over 100 µM and the GI50 (SNB-75 CNS) was over 100 µM. It also gave a TGI (SNB-75 CNS) of over 100 µM, a GI50 (HOP-92 NSCLC) of over 100 µM and a TGI (HOP-92 NSCLC) of over 100 µM. For the same compound, the GI50 (CCRF-CEM leukemia) was over 100 µM, the TGI (CCRF-CEM leukemia) was over 100 µM and the GI50 (KM12 colon) was over 100 µM. The TGI (KM12 colon) was over 100 µM, the GI50 (M14 melanoma) was over 100 µM and the TGI (M14 melanoma) was over 100 µM. The GI50 (TK-10 renal) was over 100 µM, the TGI (TK-10 renal) was over 100 µM and the GI50 (A549 NSCLC) was 4.27 µM. For the same compound, the TGI (A549 NSCLC) was over 100 µM, the GI50 (HOP-62 NSCLC) was 3.56 µM and the TGI (HOP-62 NSCLC) was over 100 µM. The GI50 (MOLT-4 leukemia) was 3.51 µM, the TGI (MOLT-4 leukemia) was 79.7 µM and the GI50 (SK-MEL-28 melanoma) was over 100 µM. For the same compound, the TGI (SK-MEL-28 melanoma) was over 100 µM, the GI50 (RXF 393 renal) was over 100 µM and the TGI (RXF 393 renal) was over 100 µM. It also gave a GI50 (SR leukemia) of 3.3 µM, a TGI (SR leukemia) of 5.99 µM and a GI50 (A498 renal) of 4.74 µM. The TGI (A498 renal) was over 100 µM, the GI50 (SNB-19 CNS) was over 100 µM and the TGI (SNB-19 CNS) was over 100 µM. For the same compound, the GI50 (MDA-MB-231 breast) was over 100 µM, the TGI (MDA-MB-231 breast) was over 100 µM and the GI50 (OVCAR-4 ovarian) was over 100 µM. It also gave a TGI (OVCAR-4 ovarian) of over 100 µM, a GI50 (SW-620 colon) of over 100 µM and a TGI (SW-620 colon) of over 100 µM. It also gave a GI50 (COLO 205 colon) of over 100 µM, a TGI (COLO 205 colon) of over 100 µM and a GI50 (NCI/ADR-RES ovarian) of over 100 µM. The TGI (NCI/ADR-RES ovarian) was over 100 µM, the GI50 (PC-3 prostate) was over 100 µM and the TGI (PC-3 prostate) was over 100 µM. For the same compound, the GI50 (U251 glioblastoma) was over 100 µM, the TGI (U251 glioblastoma) was over 100 µM and the GI50 (HCC-2998 colon) was over 100 µM. The TGI (HCC-2998 colon) was over 100 µM, the GI50 (NCI-H460 NSCLC) was over 100 µM and the TGI (NCI-H460 NSCLC) was over 100 µM. For the same compound, the GI50 (SF-295 CNS) was over 100 µM, the TGI (SF-295 CNS) was over 100 µM and the GI50 (OVCAR-3 ovarian) was 3.28 µM. It also gave a TGI (OVCAR-3 ovarian) of over 100 µM, a GI50 (HS 578T breast) of over 100 µM and a TGI (HS 578T breast) of over 100 µM. It also gave a GI50 (BT-549 breast) of over 100 µM, a TGI (BT-549 breast) of over 100 µM and a GI50 (SK-MEL-5 melanoma) of 5.43 µM. For the same compound, the TGI (SK-MEL-5 melanoma) was over 100 µM, the GI50 (LOX IMVI melanoma) was over 100 µM and the TGI (LOX IMVI melanoma) was over 100 µM. For the same compound, the GI50 (SF-268 CNS) was over 100 µM, the TGI (SF-268 CNS) was over 100 µM and the GI50 (UACC-257 melanoma) was over 100 µM. The TGI (UACC-257 melanoma) was over 100 µM, the GI50 (IGROV1 ovarian) was over 100 µM and the TGI (IGROV1 ovarian) was over 100 µM. The GI50 (NCI-H23 lung) was 1.67 µM, the TGI (NCI-H23 lung) was 5.23 µM and the GI50 (NCI-H522 lung) was over 100 µM. The TGI (NCI-H522 lung) was over 100 µM, the GI50 (SK-OV-3 ovarian) was over 100 µM and the TGI (SK-OV-3 ovarian) was over 100 µM. For the same compound, the GI50 (SF-539 CNS) was over 100 µM, the TGI (SF-539 CNS) was over 100 µM and the GI50 (HCT-116 colon) was over 100 µM. It also gave a TGI (HCT-116 colon) of over 100 µM, a GI50 (HL-60(TB) leukemia) of 0.444 µM and a TGI (HL-60(TB) leukemia) of 1.48 µM. For the same compound, the GI50 (MDA-MB-435 melanoma) was over 100 µM, the TGI (MDA-MB-435 melanoma) was over 100 µM and the GI50 (ACHN renal) was over 100 µM. It also gave a TGI (ACHN renal) of over 100 µM, a GI50 (RPMI-8226 leukemia) of 0.451 µM and a TGI (RPMI-8226 leukemia) of 1.92 µM. The GI50 (EKVX NSCLC) was 0.547 µM, the TGI (EKVX NSCLC) was 5.44 µM and the GI50 (MDA-MB-468 breast) was 0.229 µM. It also gave a TGI (MDA-MB-468 breast) of 0.475 µM, a GI50 (UO-31 renal) of 3.74 µM and a TGI (UO-31 renal) of over 100 µM. It also gave a GI50 (T-47D breast) of over 100 µM, a TGI (T-47D breast) of over 100 µM and a GI50 (MALME-3M melanoma) of over 100 µM. The TGI (MALME-3M melanoma) was over 100 µM, the GI50 (NCI-H226 lung) was over 100 µM and the TGI (NCI-H226 lung) was over 100 µM. For the same compound, the GI50 (HT29 colon) was over 100 µM, the TGI (HT29 colon) was over 100 µM and the GI50 (NCI-H322M lung) was 4.91 µM. For the same compound, the TGI (NCI-H322M lung) was over 100 µM, the GI50 (HCT-15 colon) was 7.59 µM and the TGI (HCT-15 colon) was over 100 µM. It also gave a GI50 (DU-145 prostate) of over 100 µM, a TGI (DU-145 prostate) of over 100 µM and a GI50 (CAKI-1 renal) of 0.384 µM. It also gave a TGI (CAKI-1 renal) of 2.65 µM, a GI50 (SN12C renal) of 1.18 µM and a TGI (SN12C renal) of 5.17 µM.

From PubChem BioAssay (NCI)
